According to patent publication US20220402925A1, “COMPOUNDS AND METHODS FOR THE TREATMENT OF CYSTIC FIBROSIS” (Flatley Discovery Lab, LLC, priority 2019, published 2022):

Target: T1, F508del CFTR (Homo sapiens, UniProt P13569, DEL508-508)
T1 construct: Primary CF airway epithelial cells were obtained from the UNC Cystic Fibrosis Tissue Procurement and Cell Culture Core; host or cells: primary CF airway epithelial cells
Assay: Equivalent current assay in primary CF airway epithelial cells (Corrector Activity, NAUC normalized to 3 μM VX809)
Format: cell-based
Settings: NAUC as % of positive control (VX-809)
In short: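 Readout is NAUC: current area from forskolin/potentiator addition until CFTR-172, minus vehicle, relative to 3 μM VX809 (=1.0). Cells were primary CF epithelia at air-liquid interface ≥4 weeks, given basolateral compound for 24 h at 37° C; median of n≥4 replicates, sigmoid fit with nH fixed at 1.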

T1 sequence (P13569 with tags, fused parts or gaps DEL508-508): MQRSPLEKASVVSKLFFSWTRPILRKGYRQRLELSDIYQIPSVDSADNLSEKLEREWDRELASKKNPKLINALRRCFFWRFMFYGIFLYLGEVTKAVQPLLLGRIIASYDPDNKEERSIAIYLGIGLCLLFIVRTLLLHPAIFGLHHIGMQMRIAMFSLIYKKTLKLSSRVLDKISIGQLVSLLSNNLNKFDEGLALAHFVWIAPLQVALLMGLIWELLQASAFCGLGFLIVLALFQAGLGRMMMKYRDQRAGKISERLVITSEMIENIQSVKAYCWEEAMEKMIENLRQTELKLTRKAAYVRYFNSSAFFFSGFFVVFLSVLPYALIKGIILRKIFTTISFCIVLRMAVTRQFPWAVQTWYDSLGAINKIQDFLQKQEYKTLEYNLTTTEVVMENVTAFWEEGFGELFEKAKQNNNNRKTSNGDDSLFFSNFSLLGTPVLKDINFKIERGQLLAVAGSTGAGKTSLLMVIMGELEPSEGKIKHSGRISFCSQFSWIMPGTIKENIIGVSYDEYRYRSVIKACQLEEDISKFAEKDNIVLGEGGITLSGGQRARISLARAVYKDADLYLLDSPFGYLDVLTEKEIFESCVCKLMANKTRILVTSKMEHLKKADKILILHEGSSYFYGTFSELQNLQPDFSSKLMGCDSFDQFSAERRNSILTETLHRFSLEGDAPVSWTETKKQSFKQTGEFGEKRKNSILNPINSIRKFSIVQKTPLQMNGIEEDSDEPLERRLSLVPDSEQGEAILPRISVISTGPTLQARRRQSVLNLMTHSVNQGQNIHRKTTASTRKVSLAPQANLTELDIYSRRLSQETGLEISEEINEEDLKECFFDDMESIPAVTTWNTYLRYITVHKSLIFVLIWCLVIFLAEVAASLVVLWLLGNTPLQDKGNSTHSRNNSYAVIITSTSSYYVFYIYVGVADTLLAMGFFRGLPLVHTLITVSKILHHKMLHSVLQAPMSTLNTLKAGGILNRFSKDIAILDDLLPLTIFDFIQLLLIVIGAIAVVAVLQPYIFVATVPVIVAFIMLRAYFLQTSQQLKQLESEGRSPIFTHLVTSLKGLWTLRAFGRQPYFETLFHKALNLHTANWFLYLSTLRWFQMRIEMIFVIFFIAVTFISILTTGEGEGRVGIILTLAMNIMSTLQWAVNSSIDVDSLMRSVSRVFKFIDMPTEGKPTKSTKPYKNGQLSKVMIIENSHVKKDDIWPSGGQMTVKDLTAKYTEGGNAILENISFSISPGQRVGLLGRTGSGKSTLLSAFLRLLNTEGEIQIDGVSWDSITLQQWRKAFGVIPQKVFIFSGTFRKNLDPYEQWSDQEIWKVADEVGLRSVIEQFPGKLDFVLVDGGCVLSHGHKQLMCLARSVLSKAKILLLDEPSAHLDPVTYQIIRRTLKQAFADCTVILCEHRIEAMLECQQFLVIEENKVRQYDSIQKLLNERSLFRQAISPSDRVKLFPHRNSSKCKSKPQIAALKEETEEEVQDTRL

Structure (SMILES) | Corr Activity (NAUC)
CCN(C(=O)Cn1nc(-c2cc(Cl)cc(OCc3ccccc3)c2)c2[nH]cnc2c1=O)c1ccc2c(c1)OC(F)(F)O2 [Example 273] | +++ (NAUC>70% of positive control)
CCN(C(=O)Cn1nc(-c2cc(OC)cc(OC(F)(F)F)c2)c2[nH]cnc2c1=O)c1ccc2c(c1)OC(F)(F)O2 [Example 274] | + (NAUC<40% of positive control)
CCN(C(=O)Cn1nc(-c2cc(Cl)cc(OCCOC)c2)c2[nH]cnc2c1=O)c1ccc2c(c1)OC(F)(F)O2 [Example 276] | +++ (NAUC>70% of positive control)
CCN(C(=O)Cn1nc(-c2cc(Cl)cc(N3CCCC3)c2)c2[nH]cnc2c1=O)c1ccc2c(c1)OC(F)(F)O2 [Example 277] | +++ (NAUC>70% of positive control)
CCN(C(=O)Cn1nc(-c2cc(Cl)cc(C(F)(F)F)c2)c2[nH]cnc2c1=O)c1ccc2c(c1)OC(F)(F)O2 [Example 278] | +++ (NAUC>70% of positive control)
CCN(C(=O)Cn1nc(-c2cc(C)cc(C(F)(F)F)c2)c2[nH]cnc2c1=O)c1ccc2c(c1)OC(F)(F)O2 [Example 279] | ++ (NAUC 70-40% of positive control)
CCN(C(=O)Cn1nc(-c2cc(C(C)(C)C)cc(C(C)(C)C)c2)c2[nH]cnc2c1=O)c1ccc2c(c1)OC(F)(F)O2 [Example 280] | + (NAUC<40% of positive control)
CCN(C(=O)Cn1nc(-c2cc(C#N)cc(C(F)(F)F)c2)c2[nH]cnc2c1=O)c1ccc2c(c1)OC(F)(F)O2 [Example 281] | +++ (NAUC>70% of positive control)
CCN(C(=O)Cn1nc(-c2cc(O)cc(OC(F)(F)F)c2)c2[nH]cnc2c1=O)c1ccc2c(c1)OC(F)(F)O2 [Example 284] | + (NAUC<40% of positive control)
CCN(C(=O)Cn1nc(-c2cc(C#N)cc(OC(F)(F)F)c2)c2[nH]cnc2c1=O)c1ccc2c(c1)OC(F)(F)O2 [Example 285] | +++ (NAUC>70% of positive control)
CCN(C(=O)Cn1nc(-c2ccc3c(c2)C(C)(C)c2ccccc2-3)c2[nH]cnc2c1=O)c1ccc2c(c1)OC(F)(F)O2 [Example 293] | + (NAUC<40% of positive control)
CCN(C(=O)Cn1nc(-c2ccc3[nH]c4ccccc4c3c2)c2[nH]cnc2c1=O)c1ccc2c(c1)OC(F)(F)O2 [Example 295] | + (NAUC<40% of positive control)
CCN(C(=O)Cn1nc(-c2ccc3c(ccn3Cc3ccccc3)c2)c2[nH]cnc2c1=O)c1ccc2c(c1)OC(F)(F)O2 [Example 296] | + (NAUC<40% of positive control)
CCN(C(=O)Cn1nc(-c2ccc3c(c2)ncn3-c2ccccc2)c2[nH]cnc2c1=O)c1ccc2c(c1)OC(F)(F)O2 [Example 313] | ++ (NAUC 70-40% of positive control)
CCN(C(=O)Cn1nc(-c2ccc(C(=O)NCc3ccccc3)c(Cl)c2)c2[nH]cnc2c1=O)c1ccc2c(c1)OC(F)(F)O2 [Example 330] | + (NAUC<40% of positive control)
CCN(C(=O)Cn1nc(-c2ccc(OC)c(S(=O)(=O)N3CCCC3)c2)c2[nH]cnc2c1=O)c1ccc2c(c1)OC(F)(F)O2 [Example 350] | + (NAUC<40% of positive control)
CCN(C(=O)Cn1nc(-c2ccc(S(=O)(=O)NC(C)(C)C)c(C)c2)c2[nH]cnc2c1=O)c1ccc2c(c1)OC(F)(F)O2 [Example 355] | + (NAUC<40% of positive control)
N#Cc1cc(F)cc(-c2nn(CC(=O)N(c3ccc4c(c3)OC(F)(F)O4)C3CC3)c(=O)c3nc[nH]c23)c1 [Example 368] | +++ (NAUC>70% of positive control)
N#Cc1cc(Cl)cc(-c2nn(CC(=O)N(c3ccc4c(c3)OC(F)(F)O4)C3CC3)c(=O)c3nc[nH]c23)c1 [Example 369] | +++ (NAUC>70% of positive control)
O=C(Cn1nc(-c2cccc(F)c2)c2[nH]cnc2c1=O)N(c1ccc2c(c1)OC(F)(F)O2)C1CC1 [Example 370] | + (NAUC<40% of positive control)
O=C(Cn1nc(-c2cccc(Cl)c2)c2[nH]cnc2c1=O)N(c1ccc2c(c1)OC(F)(F)O2)C1CC1 [Example 371] | ++ (NAUC 70-40% of positive control)

Second part, the molecule after the results:

Corr Activity (NAUC) | Structure (SMILES)
+ (NAUC<40% of positive control) | CCN(C(=O)Cn1nc(-c2cc(Cl)cc(CO)c2)c2[nH]cnc2c1=O)c1ccc2c(c1)OC(F)(F)O2 [Example 282]
+++ (NAUC>70% of positive control) | CCN(C(=O)Cn1nc(-c2cc(C#N)cc(OC)c2)c2[nH]cnc2c1=O)c1ccc2c(c1)OC(F)(F)O2 [Example 286]
+++ (NAUC>70% of positive control) | CCN(C(=O)Cn1nc(-c2ccc3cc(OC)ccc3c2)c2[nH]cnc2c1=O)c1ccc2c(c1)OC(F)(F)O2 [Example 289]
+ (NAUC<40% of positive control) | CCN(C(=O)Cn1nc(-c2ccc3c(ccn3C)c2)c2[nH]cnc2c1=O)c1ccc2c(c1)OC(F)(F)O2 [Example 290]
+ (NAUC<40% of positive control) | CCN(C(=O)Cn1nc(-c2ccc3ccccc3c2)c2[nH]cnc2c1=O)c1ccc2c(c1)OC(F)(F)O2 [Example 292]
+ (NAUC<40% of positive control) | CCN(C(=O)Cn1nc(-c2ccc3c(c2)OCCO3)c2[nH]cnc2c1=O)c1ccc2c(c1)OC(F)(F)O2 [Example 294]
+ (NAUC<40% of positive control) | CCN(C(=O)Cn1nc(-c2ccc3ocnc3c2)c2[nH]cnc2c1=O)c1ccc2c(c1)OC(F)(F)O2 [Example 303]
+ (NAUC<40% of positive control) | CCN(C(=O)Cn1nc(-c2ccc3c(cnn3C(C)C)c2)c2[nH]cnc2c1=O)c1ccc2c(c1)OC(F)(F)O2 [Example 310]
+ (NAUC<40% of positive control) | CCN(C(=O)Cn1nc(-c2ccc3c(c2)OC(F)(F)O3)c2[nH]cnc2c1=O)c1ccc2c(c1)OC(F)(F)O2 [Example 311]
++ (NAUC 70-40% of positive control) | CCN(C(=O)Cn1nc(-c2ccc(C(=O)OC)c(Cl)c2)c2[nH]cnc2c1=O)c1ccc2c(c1)OC(F)(F)O2 [Example 316]
+ (NAUC<40% of positive control) | CCN(C(=O)Cn1nc(-c2ccc(CC#N)c(F)c2)c2[nH]cnc2c1=O)c1ccc2c(c1)OC(F)(F)O2 [Example 317]
+ (NAUC<40% of positive control) | CCN(C(=O)Cn1nc(-c2ccc(-c3ccccc3)c(F)c2)c2[nH]cnc2c1=O)c1ccc2c(c1)OC(F)(F)O2 [Example 319]
+++ (NAUC>70% of positive control) | CCN(C(=O)Cn1nc(-c2ccc(Cl)c(Cl)c2)c2[nH]cnc2c1=O)c1ccc2c(c1)OC(F)(F)O2 [Example 322]
+++ (NAUC>70% of positive control) | CCN(C(=O)Cn1nc(-c2ccc(Cl)c(C#N)c2)c2[nH]cnc2c1=O)c1ccc2c(c1)OC(F)(F)O2 [Example 325]
+++ (NAUC>70% of positive control) | CCN(C(=O)Cn1nc(-c2ccc(OC(C)C)c(Cl)c2)c2[nH]cnc2c1=O)c1ccc2c(c1)OC(F)(F)O2 [Example 326]
+ (NAUC<40% of positive control) | CCN(C(=O)Cn1nc(-c2ccc(O)c(Cl)c2)c2[nH]cnc2c1=O)c1ccc2c(c1)OC(F)(F)O2 [Example 327]
+ (NAUC<40% of positive control) | CCN(C(=O)Cn1nc(-c2ccc(C(F)(F)F)c(Cl)c2)c2[nH]cnc2c1=O)c1ccc2c(c1)OC(F)(F)O2 [Example 328]
+ (NAUC<40% of positive control) | CCN(C(=O)Cn1nc(-c2ccc(Cl)c(OC)c2)c2[nH]cnc2c1=O)c1ccc2c(c1)OC(F)(F)O2 [Example 329]
++ (NAUC 70-40% of positive control) | CCN(C(=O)Cn1nc(-c2ccc(C#N)c(Cl)c2)c2[nH]cnc2c1=O)c1ccc2c(c1)OC(F)(F)O2 [Example 336]
+ (NAUC<40% of positive control) | CCN(C(=O)Cn1nc(-c2ccc(C)c(CO)c2)c2[nH]cnc2c1=O)c1ccc2c(c1)OC(F)(F)O2 [Example 337]
++ (NAUC 70-40% of positive control) | CCN(C(=O)Cn1nc(-c2ccc(OC)c(C(F)(F)F)c2)c2[nH]cnc2c1=O)c1ccc2c(c1)OC(F)(F)O2 [Example 338]
++ (NAUC 70-40% of positive control) | CCN(C(=O)Cn1nc(-c2ccc(OCC(F)(F)F)c(F)c2)c2[nH]cnc2c1=O)c1ccc2c(c1)OC(F)(F)O2 [Example 339]
+ (NAUC<40% of positive control) | CCN(C(=O)Cn1nc(-c2ccc(C(F)(F)F)c(C(F)(F)F)c2)c2[nH]cnc2c1=O)c1ccc2c(c1)OC(F)(F)O2 [Example 345]
+++ (NAUC>70% of positive control) | CCN(C(=O)Cn1nc(-c2ccc(OC)c(C#N)c2)c2[nH]cnc2c1=O)c1ccc2c(c1)OC(F)(F)O2 [Example 346]
+++ (NAUC>70% of positive control) | CCN(C(=O)Cn1nc(-c2ccc(OCC3CC3)c(Cl)c2)c2[nH]cnc2c1=O)c1ccc2c(c1)OC(F)(F)O2 [Example 347]
+ (NAUC<40% of positive control) | CCN(C(=O)Cn1nc(-c2ccc(C#N)c(C(F)(F)F)c2)c2[nH]cnc2c1=O)c1ccc2c(c1)OC(F)(F)O2 [Example 351]
+++ (NAUC>70% of positive control) | CCN(C(=O)Cn1nc(-c2ccc(N3CCCC3)c(C#N)c2)c2[nH]cnc2c1=O)c1ccc2c(c1)OC(F)(F)O2 [Example 352]
+ (NAUC<40% of positive control) | CCN(C(=O)Cn1nc(-c2ccc(CC#N)c(OC)c2)c2[nH]cnc2c1=O)c1ccc2c(c1)OC(F)(F)O2 [Example 357]
+ (NAUC<40% of positive control) | CCN(C(=O)Cn1nc(-c2ccc(CS(C)(=O)=O)c(Cl)c2)c2[nH]cnc2c1=O)c1ccc2c(c1)OC(F)(F)O2 [Example 363]
+++ (NAUC>70% of positive control) | CCN(C(=O)Cn1nc(-c2ccc(OC(F)(F)F)c(C#N)c2)c2[nH]cnc2c1=O)c1ccc2c(c1)OC(F)(F)O2 [Example 365]
